{
  "source": "patent US20030125314A1",
  "about": "“Photodynamic therapy for the treatment of epilepsy” (priority 2001, published 2003)",
  "key": {"[1]": {"system": "rat model of epilepsy (kindled rats)", "assay": "Morris Water Maze (spatial learning and memory) after photodynamic therapy", "assay_type": "in vivo, Sprague-Dawley rats", "details": "ALA 400 mg/Kg IV, 635 nm laser 10 min at 4 h, vs control animals, F(3,27)=0.920, p=0.445 between groups", "text": "To assess behavioral outcome, thirty-one Sprague-Dawley rats were placed into four groups to test the effects of PDT treatment parameters. All animals underwent a behavioral battery that included the Morris Water Maze (MWM), selected to assess one aspect of hippocampal function, spatial learning and memory and incline plane (IP) to screen for motor injury. […] Male Sprague-Dawley rats (275 g) had bipolar stimulating electrodes stereotactically implanted under surgical anesthesia at 7.4 mm posterior to Bregma and 4.1 lateral to the midline through a 1.5 mm craniotomy. […] ALA (400 mg/Kg) was injected intravenously through a femoral vein catheter. […] Four hours post drug administration animals were anesthetized and stereotactically positioned. […] A 4 mm diameter was created and a laser was positioned 2.3 mm from the surface of the brain. […] Laser light was focused on the brain for 10 minutes at a wavelength of 635 nanometers. […] All animals participated in the MWM test which was conducted over 5 consecutive days."}, "kindled rats [2]": {"system": "kindled rats", "assay": "Resumed daily kindling stimulations after PDT (seizure activity, after discharges)", "assay_type": "in vivo, rat", "details": "PDT animals, over 1 week of daily stimulation", "excerpt": "We have assessed this therapy in kindled rats. Kindling is a well characterized and reproducible model for reflecting epileptogensis, the process by which a normal brain region becomes an epileptic focus. Animals are kindled with an electrode implanted into the perforant path region of the brain. Each day the animals receive a small stimulus. Initially no seizure activity is induced, but over two or three weeks, this same low level of stimulation generates increasing seizure activity until an animal has 3 consecutive tonic clonic (Stage 5) seizures. Once fully kindled, animals retain this seizure sensitivity even if not stimulated for days or months.\n(§1) In our study, animals completing the photodynamic therapy protocol recovered from surgery and underwent behavioral testing using the beam walk test to assess paresis and the Morris Water Maze to assess hippocampus related learning."}, "kindled rats [3]": {"system": "kindled rats", "assay": "Morris Water Maze after photodynamic therapy, compared to historic controls", "assay_type": "in vivo, rat", "details": "animals completing the photodynamic therapy protocol", "excerpt": "as §1"}, "[4]": {"details": "cited from earlier work"}, "[5]": {"system": "rat model of epilepsy (kindled rats)", "assay": "Incline Plane test (motor/grip strength) after photodynamic therapy", "assay_type": "in vivo, Sprague-Dawley rats", "details": "ALA 400 mg/Kg IV, 635 nm laser 10 min, vs control groups, F(3,27)=1.616, p=0.209 between groups", "experimental": "To assess behavioral outcome, thirty-one Sprague-Dawley rats were placed into four groups to test the effects of PDT treatment parameters. All animals underwent a behavioral battery that included the Morris Water Maze (MWM), selected to assess one aspect of hippocampal function, spatial learning and memory and incline plane (IP) to screen for motor injury. […] ALA (400 mg/Kg) was injected intravenously through a femoral vein catheter. […] Four hours post drug administration animals were anesthetized and stereotactically positioned. […] A 4 mm diameter was created and a laser was positioned 2.3 mm from the surface of the brain. […] Laser light was focused on the brain for 10 minutes at a wavelength of 635 nanometers. […] This test was selected because it can evaluate bilateral grip strength and we used this test to screen for any motor and/or coordination deficiencies resulting for the surgical craniectomy or laser effect on the cortex. […] Any sign of hemiparesis may indicate undesired cortical injury. […] This test involves the initial placement of the animal at a 65 degree angle to the horizontal. The flat plane can move up or down at intervals of 5 degrees, until they are at an angle where they can hold their position without sliding down. Then the opposite side is tested. Animals are evaluated on this task on days 1-4 before going on to the MWM."}, "kindled rats [6]": {"system": "kindled rats", "assay": "Beam walk test to assess paresis after photodynamic therapy", "assay_type": "in vivo, rat", "details": "animals completing the photodynamic therapy protocol, compared to historic controls", "excerpt": "as §1"}, "hippocampal cells": {"system": "hippocampal cells", "assay": "PpIX fluorescence in brain sections after ALA infusion (fluorescence microscopy, Texas Red filter)", "details": "400 mg/Kg IV, 4 hours"}, "[7]": {"system": "CA1 and CA3 regions of the kindled hippocampus", "assay": "Fluorojade histofluorescence analysis of cell death after laser-induced PDT", "assay_type": "in vivo, rat", "details": "24 hours after laser-induced PDT of ALA-treated animals", "description": "The Wilson laboratory at the University of Toronto has previously measured apoptotic cell death at 24 hours following PDT and our Fluorojade results are consistent with their findings. Lilge et al. (2000) have shown that necrotic and apoptotic cell death are a function of the laser exposure (a variable easy to control) and not extent of ALA uptake or conversion.\nFluorojade (Histo-Chem, Inc) staining will be carried out on 20 micron cryostat-prepared brain sections. Tissue sections are mounted onto gelatinized slides and allowed to dry at room temp. Using a staining rack, slides are immersed in 100% EtOH (3 min), in 70% EtOH (1 min), in distilled water (1 min), and then in 0.06% solution of potassium permanganate (15 min, shaking gently). Slides are rinsed in distilled water, and then immersed in a 0.001% Fluoro-Jade solution (away from light, 30 min, shaking gently) following steps carried out in dim light). Still in dim light, slides are then rinsed, dried, dehydrated (xylene), and coverslipped. Stained slides, viewed with a fluorescence microscope (FITC filter), reveal apoptotic cells as brightly green."}},
  "data": [
    {"compound": "NCC(=O)CCC(=O)O", "note": "[ALA, 5-aminolevulinic acid]", "values": [
      {"measurement": "performance on the MWM task", "setting": "[1]", "result": "no significant differences"},
      {"measurement": "seizure activity / after discharges on resumed kindling stimulation", "setting": "kindled rats [2]", "result": "no seizure activity or significant after discharges"},
      {"measurement": "learning impairment (Morris Water Maze)", "setting": "kindled rats [3]", "result": "no hemiparesis or learning impairment"},
      {"measurement": "blood-brain barrier passage", "setting": "[4]; evidenced by increased PpIX concentrations in normal brain tissue after ALA administration (Hebeda, K., 1995)", "result": "can cross the blood-brain barrier"},
      {"measurement": "time point of maximal uptake of ALA into brain tissue", "setting": "[4]; following the ALA injection (Lilge, L., et al. 2000)", "result": "four"},
      {"measurement": "incline plane assessment (motor performance)", "setting": "[5]", "result": "no difference between groups"},
      {"measurement": "hemiparesis (beam walk test)", "setting": "kindled rats [6]", "result": "no hemiparesis"},
      {"measurement": "ALA uptake in hippocampal cells (PpIX fluorescence)", "setting": "hippocampal cells; fully kindled rats with elicited seizures vs fully kindled rats without elicited seizures and implanted controls, preliminary data", "result": "greater ALA uptake in hippocampal cells"},
      {"measurement": "PpIX fluorescence", "setting": "hippocampal cells; kindled rats without elicited seizures vs implanted controls, initial results", "result": "more fluorescence than implanted controls"},
      {"measurement": "cell death (Fluorojade histofluorescence)", "setting": "[7]", "result": "selective cell death in the CA1 and CA3 regions of the kindled hippocampus"}
    ]}
  ]
}
